Counter-ions that a name gives are not always drawn.
Columns and labels:
Assay type in all cases: cell-based
adenosine 2a receptor = adenosine 2a receptor (Homo sapiens, UniProt P29274); assay: Agonist activity against adenosine 2a receptor (CHO cells, cAMP/SPAP reporter); conditions: CHO cells transfected with human receptor; basal cAMP via SPAP; mean of all the versions tested
Experimental: (§1) (1) Agonist activity against adenosine 2a, adenosine 1 and adenosine 3 receptor subtypes.
(§2) The effect of test compounds was determined by their effects on basal levels of cAMP (A2a) or on forskolin-enhanced cAMP (A1 and A3) as reflected by changes in levels of SPAP.

adenosine 3 receptor = biological target: T1, adenosine 3 receptor (Homo sapiens, UniProt P0DMS8); assay: Agonist activity against adenosine 3 receptor (CHO cells, forskolin-enhanced cAMP/SPAP reporter); conditions: CHO cells transfected with human receptor; forskolin-enhanced cAMP via SPAP; mean of all the versions tested
T1 sequence (P0DMS8 1-318): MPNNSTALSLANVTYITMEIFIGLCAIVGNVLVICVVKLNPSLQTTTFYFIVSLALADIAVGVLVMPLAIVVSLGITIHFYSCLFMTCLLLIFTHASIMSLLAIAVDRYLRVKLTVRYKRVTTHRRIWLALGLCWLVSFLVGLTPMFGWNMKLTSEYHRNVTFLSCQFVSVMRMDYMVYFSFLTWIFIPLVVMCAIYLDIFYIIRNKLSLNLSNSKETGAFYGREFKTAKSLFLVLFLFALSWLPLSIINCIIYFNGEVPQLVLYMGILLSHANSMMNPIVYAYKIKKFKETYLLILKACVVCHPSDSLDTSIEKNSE
Experimental: as §1, §2

adenosine 1 receptor = biological target: T2, adenosine 1 receptor (Homo sapiens, UniProt P30542); assay: Agonist activity against adenosine 1 receptor (CHO cells, forskolin-enhanced cAMP/SPAP reporter); conditions: CHO cells transfected with human receptor; forskolin-enhanced cAMP via SPAP; mean of all the versions tested
T2 sequence (P30542 1-326): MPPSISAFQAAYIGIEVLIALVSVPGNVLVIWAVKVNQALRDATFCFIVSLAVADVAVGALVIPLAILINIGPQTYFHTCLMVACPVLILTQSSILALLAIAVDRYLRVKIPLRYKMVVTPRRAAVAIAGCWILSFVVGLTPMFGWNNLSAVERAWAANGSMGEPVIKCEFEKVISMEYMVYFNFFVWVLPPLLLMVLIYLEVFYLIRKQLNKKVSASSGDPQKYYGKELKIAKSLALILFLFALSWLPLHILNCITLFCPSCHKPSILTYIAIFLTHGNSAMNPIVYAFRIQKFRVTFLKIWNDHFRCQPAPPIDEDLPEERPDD
Experimental: as §1, §2

Chain of adenosine 2a receptor (P29274 whole entry): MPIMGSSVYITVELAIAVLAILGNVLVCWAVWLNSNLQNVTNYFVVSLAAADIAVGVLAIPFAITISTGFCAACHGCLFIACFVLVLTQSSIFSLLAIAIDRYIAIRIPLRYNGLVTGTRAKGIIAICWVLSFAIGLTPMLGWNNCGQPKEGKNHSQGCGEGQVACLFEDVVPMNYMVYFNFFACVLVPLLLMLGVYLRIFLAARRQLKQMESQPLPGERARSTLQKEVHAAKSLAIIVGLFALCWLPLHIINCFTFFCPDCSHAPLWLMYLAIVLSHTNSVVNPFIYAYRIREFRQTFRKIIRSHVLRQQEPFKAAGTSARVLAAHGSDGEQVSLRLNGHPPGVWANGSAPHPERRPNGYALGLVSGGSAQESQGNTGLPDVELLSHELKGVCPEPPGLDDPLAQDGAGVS

A2a EC50 as a ratio of that of NECA (adenosine 2a receptor) | A3 EC50 as a ratio of that of NECA (adenosine 3 receptor) | A1 EC50 as a ratio of that of NECA (adenosine 1 receptor) | Compound
2.37 | >164 | 77.10 | CC(C)n1nnc(C2OC(n3cnc4c(NC5CCCC5)nc(NCCN5CCCCC5)nc43)C(O)C2O)n1 [Example 80, (2R,3R,4S,5R)-2-[6-Cyclopentylamino-2-(2-piperidin-1-yl-ethylamino)-purin-9-yl]-yl)-5-(2-isopropyl-2H-tetrazol-5-yl)-tetrahydro-furan-3,4-diol bis(Formate)]
2.28 | >160 | 126.50 | Cn1nnc(C2OC(n3cnc4c(NCC(c5ccccc5)c5ccccc5)nc(NCCN5CCOCC5)nc43)C(O)C2O)n1.O=CO.O=CO (stereo not drawn) [Example 98]
1.07 | >233 | >2999.00 | Cn1nnc(C2OC(n3cnc4c(NCc5cccc(I)c5)nc(NC5CCC(N)CC5)nc43)C(O)C2O)n1.O=CO.O=CO [Example 105, (2R,3R,4S,5R)-2-[2-(trans-4-Amino-cyclohexylamino)-6-(3-iodo-benzylamino)-purin-9-yl]-5-(2-methyl-2H-tetrazol-5-yl)-tetrahydro-furan-3,4-diol bis(Formate)]
9.90 | >736 | 481.30 | CCn1nnc(C2OC(n3cnc4c(NCCC(C)(C)C)nc(NC(CO)Cc5ccccc5)nc43)C(O)C2O)n1 [Example 52, (2R,3R,4S,5R)-2-[6-(3,3-Dimethyl-butylamino)-2-(1S-hydroxymethyl-2-phenyl-ethylamino)-purin-9-yl]-5-(2-ethyl-2H-tetrazol-5-yl)-tetrahydro-furan-3,4-diol Acetate]
5.00 | >315 | 3.13 | Cn1nnc(C2OC(n3cnc4c(NC(CO)Cc5ccccc5)nc(NC(CO)Cc5ccccc5)nc43)C(O)C2O)n1 [Example 110, (2R,3R,4S,5R)-2-[2,6-Bis-(1S-Hydroxymethyl-2-phenyl-ethylamino)-purin-9-yl]-5-(2-methyl-2H-tetrazol-5-yl)-tetrahydro-furan-3,4-diol Formate]
3.91 | >184 | 48.50 | CCn1nnc(C2OC(n3cnc4c(NC(CO)Cc5ccccc5)nc(NCCN5CCCCC5)nc43)C(O)C2O)n1 (stereo not drawn) [Example 103]
3.30 | >200 | 101.30 | CCn1nnc(C2OC(n3cnc4c(NCc5cccc(I)c5)nc(NC5CCN(Cc6ccccc6)C5)nc43)C(O)C2O)n1.O=CO.O=CO [Example 77, (2R,3R,4S,5R)-2-[2-(1-Benzyl-pyrrolidin-3-ylamino)-6-(3-iodo-benzylamino)-purin-9-yl]-5-(2-ethyl-2H-tetrazol-5-yl)-tetrahydro-furan-3,4-diol bis(Formate)]
2.25 | >201 | 111.30 | Cn1nnc(C2OC(n3cnc4c(NCc5cccc(I)c5)nc(NCCN5CCCC5)nc43)C(O)C2O)n1.O=CO.O=CO [Example 108, (2R,3R,4S,5R)-2-[6-(3-Iodo-benzylamino)-2-(2-pyrrolidin-1-yl-ethylamino)-purin-9-yl]-5-(2-methyl-2H-tetrazol-5-yl)-tetrahydro-furan-3,4-diol bis(Formate)]
0.11 | 3.66 | 22.1 | CCn1nnc(C2OC(n3cnc4c(N)nc(NC5CCCC5O)nc43)C(O)C2O)n1 [Example 10, (2R,3R,4S,5R)-2-[6-Amino-2-(2R-hydroxy-cyclopent-1R-ylamino)-purin-9-yl]-5-(2-ethyl-2H-tetrazol-5-yl)-tetrahydro-furan-3,4-diol Hydrochloride]
0.79 | >201 | 123 | Cn1nnc(C2OC(n3cnc4c(NC(CO)Cc5ccccc5)nc(NC5CCC(N)CC5)nc43)C(O)C2O)n1 [Example 35, (2R,3R,4S,5R)-2-[2-(trans-4-Amino-cyclohexylamino)-6-(1S-hydroxymethyl-2-phenyl-ethylamino)-purin-9-yl]-5-(2-methyl-2H-tetrazol-5-yl)-tetrahydro-furan-3,4-diol bis(Formate)]
2.46 | >158 | 61.50 | CCC(CC)Nc1nc(NC2CCN(Cc3ccccc3)C2)nc2c1ncn2C1OC(c2nnn(CC)n2)C(O)C1O.O=CO.O=CO [Example 65, (2R,3R,4S,5R)-2-[2-(1-Benzyl-pyrrolidin-3-ylamino)-6-(1-ethyl-propylamino)-purin-9-yl]-5-(2-ethyl-2H-tetrazol-5-yl)-tetrahydro-furan-3,4-diol bis(Formate)]
1.24 | >192 | 253.70 | (2R,3R,4S,5R)-2-[2-(trans-4-Amino-cyclohexylamino)-6-cyclopentylamino-purin-9-yl]-5-(2-methyl-2H-tetrazol-5-yl)-tetrahydro-furan-3,4-diol Diformate [Example 92]
0.1 | >133 | 12.6 | CCn1nnc(C2OC(n3cnc4c(NC(CO)Cc5ccccc5)nc(NCCc5cn(C)cn5)nc43)C(O)C2O)n1 [Example 8, (2R,3S,4R,5R)-2-(2-Ethyl-2H-tetrazol-5-yl)-5-{6-(1S-hydroxymethyl-2-phenyl-ethylamino)-2-[2-(1-methyl-1H-imidazol-4-yl)-ethylamino]-purin-9-yl}-tetrahydro-furan-3,4-diol Acetate]
1.99 | >158 | 14.78 | CCn1nnc(C2OC(n3cnc4c(NC5CCCC5)nc(NC(CO)Cc5ccccc5)nc43)C(O)C2O)n1 [Example 71, (2R,3R,4S,5R)-2-[6-Cyclopentylamino-2-(1S-hydroxymethyl-2-phenyl-ethylamino)-purin-9-yl]-5-(2-ethyl-2H-tetrazol-5-yl)-tetrahydro-furan-3,4-diol Formate]

Compound | A2a EC50 as a ratio of that of NECA (adenosine 2a receptor) | A3 EC50 as a ratio of that of NECA (adenosine 3 receptor) | A1 EC50 as a ratio of that of NECA (adenosine 1 receptor)
CCn1nnc([C@H]2O[C@@H](n3cnc4c(NCC(c5ccccc5)c5ccccc5)nc(NCCc5cccc(N)n5)nc43)[C@H](O)[C@@H]2O)n1.O=C(O)C(F)(F)F.O=C(O)C(F)(F)F.O=C(O)C(F)(F)F [Example 22, (2R,3R,4S,5R)-2-[2-[2-(6-Amino-pyridin-2-yl)-ethylamino]-6-(2,2-diphenyl-ethylamino)-purin-9-yl]-5-(2-ethyl-2H-tetrazol-5-yl)-tetrahydro-furan-3,4-diol tris(Trifluoroacetate)] | 0.67 | >188 | 86.4
Cn1nnc([C@H]2O[C@@H](n3cnc4c(N)nc(NC5CC6CCC5C6)nc43)[C@H](O)[C@@H]2O)n1.O=CO (stereo partly drawn) [Example 39, (2R,3R,4S,5R)-2-[6-Amino-2-(bicyclo[2.2.1]hept-2-ylamino)-purin-9-yl]-5-(2-methyl-2H-tetrazol-5-yl)-tetrahydro-furan-3,4-diol Formate] | 0.31 | >315 | 1429
CC(C)n1nnc([C@H]2O[C@@H](n3cnc4c(NCCC(C)(C)C)nc(NCCc5cn(C)cn5)nc43)[C@H](O)[C@@H]2O)n1.O=CO [Example 56, (2R,3R,4S,5R)-2-{6-(3,3-Dimethyl-butylamino)-2-[2-(1-methyl-1H-imidazol-4-yl)-ethylamino]-purin-9-yl}-5-(2-isopropyl-2H-tetrazol-5-yl)-tetrahydro-furan-3,4-diol Formate] | 4.90 | >297 | 570.90
CCn1nnc([C@H]2O[C@@H](n3cnc4c(NCC(c5ccccc5)c5ccccc5)nc(NC5CCSCC5)nc43)[C@H](O)[C@@H]2O)n1.O=C(O)C(F)(F)F [Example 114] | 0.58 | >2972.0 | 242.2
CCn1nnc([C@H]2O[C@@H](n3cnc4c(NCC(c5ccccc5)c5ccccc5)nc(NC5CCNC5)nc43)[C@H](O)[C@@H]2O)n1.O=C(O)C(F)(F)F.O=C(O)C(F)(F)F.O=C(O)C(F)(F)F (stereo partly drawn) [Example 2, (2R,3R,4S,5R)-2-[6-(2,2-Diphenyl-ethylamino)-2-(pyrrolidin-3-ylamino)-purin-9-yl]-5-(2-ethyl-2H-tetrazol-5-yl)-tetrahydro-furan-3,4-diol tris(Trifluoroacetate)] | 0.92 | >216 | 123.6
